GPC3-specific cytotoxic activity data for three sequences are collected here from US8535942B2, “Glypican-3 (GPC3)-derived tumor rejection antigenic peptides useful for HLA-A2-positive patients and pharmaceutical comprising the same” (Oncotherapy Science, Inc., priority 2005, dated 2013).

Entries after “also recorded” stand apart in the source; their conditions may differ. No end group written: not given here.

The test system of the data set is SK-Hep-1/GPC3 cells. In words: Cytotoxicity test of peptide-induced killer T cells (calcein AM, Terascan VP). The conditions noted are these: killer T cells induced with peptide-loaded dendritic cells; targets SK-Hep-1/GPC3 vs SK-Hep-1; E/T ratio 20:1. The format is cell-based, human. As for the experimental part: Informed consent was obtained from HLA-A2-positive hepatocellular carcinoma patients, who were in therapy at Gastroenterological Surgery, Kumamoto University School of Medicine, and at Hospital East, the National Cancer Center. Thereafter, 30 ml of blood sample was obtained from individual patients, and peripheral blood mononuclear cells were then isolated using Ficoll-Conray density-gradient centrifugation method according to the previously reported method (Nakatsura, T et al., Eur. J. Immunol. 32, 826-836 (2002)).
From the isolated peripheral blood mononuclear cells, killer T cells were induced by the previously reported method (Monji, M et al., Clin Cancer Res 10, 6047-6057, 2004). First, CD8-positive cells and CD14-positive cells were separated from the peripheral blood mononuclear cells using MACS. The CD14-positive cells were cultured in the presence of GM-CSF (100 ng/ml) and IL-4 (20 ng/ml) for 5 days, so that differentiation of dendritic cells was induced. Thereafter, TNF-α (20 ng/ml) was added thereto for maturation. On the 7th day, each GPC3 peptide (10 μM) was added thereto, and co-culture with CD8-positive cells was then carried out. This antigen stimulation with autologous CD14-positive cell-derived dendritic cells was repeated 3 or 4 times every week, so that peptide-specific killer T cells were induced. During the induction, half a medium was exchanged with a fresh one every two days, and IL-2 was added thereto in a concentration of 10 U/ml.
The cytotoxic activity of killer T cells was evaluated by a cytotoxic test using Terascan VP. First, target cells were fluorescently labeled with a calcein AM staining solution at 37° C. for 30 minutes. Such cells were co-cultured with killer T cells on a Coster 96-well half area plate, and fluorescently labeled cells were then detected over time, thereby measuring the degree of cytotoxicity. The analysis was carried out using cytotoxicity test computing software CalCT-961 of MINERVA TECH, which was used in a fluorescence method. An experiment was carried out at an E/T ratio of 20:1. […]
Consider FVGEFFTDV [GPC3 144-152, FVGEFFTDV], for which the GPC3-specific cytotoxic activity entry was “confirmed; also recorded: exhibited strong cytotoxic activity”.

As for YILGSDINV [GPC3 155-163, YILGSDINV], the GPC3-specific cytotoxic activity result is on record as “confirmed; also recorded: exhibited strong cytotoxic activity”. Then RLQPGLKWV [GPC3 44-52, RLQPGLKWV], with “confirmed; also recorded: exhibited strong cytotoxic activity”.
